From US20220288102A1, “Compounds for Hepatitis B Treatment” (Agency for Science, Technology and Research, priority 2019, published 2022)
“Also recorded” adds a separate entry of the source.

What was measured:
HBsAg [1] = experiment: HBsAg inhibition in HepG2 2.15 cells (primary screen and dose response, HBsAg ELISA); type: cell-based, Hepatitis B virus; details: for HBsAg inhibition, dose response curve / percentage inhibition curve (HBsAg): 8-point dose response in HepG2 2.15 cells starting from 30 μM; for IC50: Hepatitis B virus, HepG2.2.15, read-out: IC50 (HBsAg); for percentage inhibition curve (HBsAg): FIG. 4
Description: HBsAg ELISA. HBsAg ELISA was carried out as described in detail below. In brief 25 μL of the cell culture supernatant was collected at the indicated timepoints on the figure legends and was used for the HBsAg ELISA.
Procedure • 1. Coat microwells with 25 ul per well of mouse monoclonal [86C] diluted in coating buffer (6 ug per ml; 300 ul from 0.2 mg/ml stock in 10 ml of coating buffer)(150 ng/well). • 2. Seal plate and incubate overnight at 4° C. • 3. Aspirate wells and wash 3 times with 50 ul/well of wash buffer. • 4. After last wash, invert plate and blot on c-towel and spin 1000 rpm for 1 min to remove residual solution. • 5. Block plates with 75 ul/well of assay diluent. Incubate at RT for 2 hrs. • 6. Aspirate/wash as in step 3. • 7. Prepare 4000 ng/ml of active HBS Ag (Adw) full length protein in assay diluent and titrate 2 fold for 12 different decreasing concentration. Pipette 25 ul of sample and different dilutions of active HepB surface Ag (Adw) into appropriate wells. Seal plate and incubate for 2 hrs at RT. • 8. Aspirate/wash as in step 3 but with total 5 washes. • 9. Add 25 ul of working detector (Rabbit polyclonal to HBS-Biotin (4500 ng/ml)+SAv-HRP (1:1000) reagent to each well. Seal plate and incubate for 1 hr at RT. • 10. Aspirate/wash as in step 3 but for 7 washes. • 11. Add 25 ul of TMB substrate solution to each well and incubate plate for 30 minutes at RT in dark. • 12. Add 25 ul of stop solution (1N HCl) to each well, read absorbance at 450 nm within 30 minutes of stopping reaction.
In block 205, a primary screen of the library of compounds was done in HepG2 2.15 cells to determine the inhibitory activity of HBsAg (the surface antigen of the Hepatitis B virus which indicates hepatitis B infection in patients) and parallel cytotoxicity. In block 310, the hit compounds (“HITS” or “HITs”) were determined by identifying compounds with certain criteria. […] For example, the compounds may be tested at 3 μM (data shown herein) or 10 μM.
A secondary screen of the hit compounds was done to determine the EC50 of the hit compounds.

[2] = Cytotoxicity in HepG2 2.15 cells; type: cell-based; details: human, Hep G2 2.15 cells
Description: In block 205, a primary screen of the library of compounds was done in HepG2 2.15 cells to determine the inhibitory activity of HBsAg (the surface antigen of the Hepatitis B virus which indicates hepatitis B infection in patients) and parallel cytotoxicity. In block 310, the hit compounds (“HITS” or “HITs”) were determined by identifying compounds with certain criteria. […] In the preliminary screen, the compounds are typically tested at higher concentrations than expected and may lead to greater than desired cytotoxicity (>20%). For example, the compounds may be tested at 3 μM (data shown herein) or 10 μM. However, the compound was subsequently further tested in a proper dose response manner (described below) to determine whether the drug is able to elicit the antiviral response (decrease in HBsAg levels) with low cytotoxicity (i.e. <20% cytotoxicity).
From the primary high throughput screen of 151 epigenetic modulators in the SelleckChem compound library at a 3 μM concentration, 16 hit compounds were identified to have good antiviral activity resulting in high HBsAg loss (>50%) and low cytotoxicity (<20%) and the results are shown in FIG. 3.
A secondary screen of the hit compounds was done to determine the EC50 of the hit compounds. […] Some of the other compounds were determined to be less suitable. […] The MI-2 EC50 is very high and appers to be dependent on the toxic nature of the compound and was not a viable option. The percentage inhibition curve of MC1568, OF-1 and tofacitinib in FIG. 4 are close to 0 in the vertical axis and may not be readily seen in FIG. 4. It may be seen that the secondary screen is able to filter off unsuitable compounds from the primary screen.

extracellular HBV DNA = experiment: Extracellular HBV DNA (qPCR) in infected primary human hepatocytes; type: cell-based, Hepatitis B virus; details: HBVcc-infected primary human hepatocytes, compound treatment 3 μM
Description: HBV extracellular DNA was extracted from 200 μL of cell culture supernatant collected at the end of the experiment as indicated on the figure legends. DNA was extracted according to the QIAamp DNA Mini Kit (Qiagen).
(§1) FIG. 8 briefly describes an experimental model of the method to infect the cells with HBV, treatment with drugs, and subsequent analysis. The primary human hepatocytes were seeded in a 96 well plate coated with Collagen I (30 minutes at room temperature) with DMSO (1%) induction. The next day, the cells were infected with purified HBV with a multiplicity of infection (MOI) of 500 (i.e. the ratio of the infection agent (HBV) to the infection target (cell)) in media containing 4% polyethylene glycol 8000 (PEG-8000) and 1% DMSO (day 0). On the next day, the infected cells were washed vigorously to remove excess virus by washing 3 times without removing the spent media completely and treated with the test compounds at 3 μM concentration (day 1). In addition. the supernatant was collected at day 3 and the cells pulsed again with the test compounds at 3 μM concentration. At day 5, the supernatant was collected for analysis with the HBsAg ELISA and finally at day 8 cells were lysed for DNA isolation, eHBV analysis and cccDNA analysis. This allows comparison of the effects of the compounds on day 3 and day 5. Some of the cells were fixed, permeabalized and stained with antibody to HBcAg to determine HBcAg levels via IFA.

HBV in HepAD38.7 cells = experiment: Secondary validation of the drug screen in HepAD38.7 cells; type: cell-based, Hepatitis B virus
Description: In block 215, a secondary screen was conducted to determine the EC50 values (the effective concentration to obtain 50% activity or inhibition) of the HIT compounds. In block 220, the hit compounds were tested in HEPAD38.7 HBV live infection models to determine the robustness of the hit compounds, i.e. whether the hit compounds are effective. In block 225, the novel lead compounds or scaffold structures are identified and mechanism of action (MOA) studies for target engagement were developed. In block 230, the lead compound is optimised and validated or if the compound is known but for a different non-biological use or biological target, the compound may be repurposed for the inhibition of HBV. In block 235, the efficacy of the compound was determined in animal models.
A secondary validation of the drug screen in HepAD38.7 cells and a functional gene knockdown using Lipofectamine 3000 reagent was also performed. The genes selected were the annotated targets of the selected epigenetic inhibitors.

HBsAg [3] = experiment: HBsAg ELISA in HBV-infected primary human hepatocytes; type: cell-based, Hepatitis B virus; details: 3 μM
Description: HBV infection of PHH. Primary human hepatocytes were infected at […] in presence of 4% PEG8000 and 1% DMSO as described earlier. The samples, cell lysate for RNA and or DNA as well as cell culture supernatant were harvested at indicated timepoints on figure legends.
Procedure • 1. […] Seal plate and incubate overnight at 4° C. • 3. […] Block plates with 75 ul/well of assay diluent. Incubate at RT for 2 hrs. • 6. Aspirate/wash as in step 3. • 7.
as §1

[4] = test system: primary human hepatocytes; experiment: Cytotoxicity (CCK-8) in infected primary human hepatocytes; type: cell-based; details: 3 μM
cccDNA = cccDNA (qPCR) in infected primary human hepatocytes; type: cell-based, Hepatitis B virus; details: HBVcc-infected primary human hepatocytes, compound treatment 3 μM
Description: The DNA is isolated from the cellular lysate, purification with Plasmid safe ATP-dependent DNAse is performed to remove non-circular DNAs (relaxed circular DNA). cccDNA levels are then measure using a Taqman-probe based quantitative polymerase chain reaction.
as §1, with “Some of the cells were fixed, permeabalized and stained with antibody to HBcAg to determine HBcAg levels via IFA.” left out

| SMILES | HBsAg inhibition, dose response curve (HBsAg [1]) | IC50 (HBsAg [1]) [nM] | IC50 [2] [nM] | antiviral effect in HepAD38 cells (HBV in HepAD38.7 cells) | other results |
| --- | --- | --- | --- | --- | --- |
| Cc1cc(Nc2nc(N[C@@H](C)c3ccc(F)cc3)c(C#N)cc2F)n[nH]1 [AZ960] | suitable dose response curve | 193 | 231 |  | extracellular HBV DNA levels in the cell culture supernatant (extracellular HBV DNA): reduces extracellular HBV DNA levels more than Entecavir |
| COc1cc(Nc2ncc3c(n2)-c2ccc(Cl)cc2C(c2c(F)cccc2OC)=NC3)ccc1C(=O)O [Alisertib] | not as efficacious |  |  | did not show an effect |  |
| Cc1nc(N)sc1-c1ccnc(Nc2ccc(N3CCOCC3)cc2)n1 [CYC-116] | suitable dose response curve | 420 | 1490 | significantly higher antiviral activity | HBsAg levels (HBsAg [3]; Day 3 and Day 5): reduces HBsAg levels more than Entecavir; also recorded: lowest HBsAg levels; cytotoxicity level (CCK-8) [4]: higher cytotoxicity levels; extracellular HBV DNA levels in the cell culture supernatant (extracellular HBV DNA): reduces extracellular HBV DNA levels more than Entecavir; cccDNA levels in the cell lysate (cccDNA): lowest measured cccDNA levels |
| C=C1[C@H](CO)[C@@H](O)C[C@@H]1n1cnc2c(=O)[nH]c(N)nc21 [Entecavir] |  |  |  |  | cytotoxicity level (CCK-8) [4]: low toxicity levels |
| Cn1c(/C=C/C(=O)NO)ccc1/C=C/C(=O)c1cccc(F)c1 [MC-1568] |  |  |  |  | percentage inhibition curve (HBsAg) (HBsAg [1]): ~0% |
| CCCc1cc2c(N3CCN(C4=NCC(C)(C)S4)CC3)ncnc2s1 [MI-2] |  |  |  |  | EC50 (HBsAg [1]; secondary screen, HepG2 2.15 cells): very high |
| CC(C)c1cc2c(N3CCN(C4=NCC(C)(C)S4)CC3)ncnc2s1 [MI-3] | suitable dose response curve | 1120 | 4370 |  |  |
| CCCCN(Cc1ccc(C(=O)NO)cc1)C(=O)Nc1ccccc1 [Nexturastat A] | suitable dose response curve | 980 | 3580 | significantly higher antiviral activity | HBsAg levels (HBsAg [3]; Day 3 and Day 5): reduces HBsAg levels more than Entecavir |
| COc1cc2c(cc1NS(=O)(=O)c1ccc(Br)cc1C)n(C)c(=O)n2C [OF-1] |  |  |  |  | percentage inhibition curve (HBsAg) (HBsAg [1]): ~0% |
| CCS(=O)(=O)c1cccc(-c2cc(C(=O)NC3CCN(C)CC3)c(C)c3[nH]c4ncc(C)cc4c23)c1 [TAK-901] | suitable dose response curve | 400 | 11000 | significantly higher antiviral activity | HBsAg levels (HBsAg [3]; Day 3 and Day 5): reduces HBsAg levels more than Entecavir; cytotoxicity level (CCK-8) [4]: higher cytotoxicity levels; extracellular HBV DNA levels in the cell culture supernatant (extracellular HBV DNA): reduces extracellular HBV DNA levels more than Entecavir; cccDNA levels in the cell lysate (cccDNA): lowest measured cccDNA levels |
| C[C@@H]1CCN(C(=O)CC#N)C[C@@H]1N(C)c1ncnc2[nH]ccc12 [Tofacitinib] |  |  |  |  | percentage inhibition curve (HBsAg) (HBsAg [1]): ~0% |
| CN1CCc2c(c3ccccc3n2Cc2ccc(C(=O)NO)cc2)C1.Cl [Tubastatin A HCl, Tubastatin A hydrochloride salt] | suitable dose response curve | 2000 | 7210 | significantly higher antiviral activity | HBsAg levels (HBsAg [3]; Day 3 and Day 5, hydrochloride salt): reduces HBsAg levels more than Entecavir; also recorded: lowest HBsAg levels |
